Test results: US20160084820A1, “METHODS OF TREATING OR PREVENTING PERIODONTITIS AND DISEASES ASSOCIATED WITH PERIODONTITIS” (priority 2010, published 2016)

Legend:
[1] = test system: lipid rafts (GM1 ganglioside); experiment: FRET of TLR2, C5aR, CXCR4 with GM1 lipid raft marker; type: cell-based, mouse; conditions: MCD 10 mM for 30 min
Procedure: Upon stimulation for 10 min at 37° C. with P. gingivalis, mouse macrophages were labeled with a mixture of Cy3-conjugated (donor) and Cy5-conjugated (acceptor) antibodies, as indicated in FIG. 4I. In additional experiments shown in FIG. 4I, FITC-labeled P. gingivalis was used as donor and TRITC-labeled receptors served as acceptors. The cells were washed and fixed, and energy transfer between various donor-acceptor pairs was calculated from the increase in donor fluorescence after acceptor photobleaching (REF 9, 14). […] The conjugation of antibodies to Cy3 or Cy5 was performed using kits from Amersham Biosciences.
Supplemental experiments also examined the association of TLR2, C5aR, and CXCR4 with GM1 (lipid raft marker) in P. gingivalis-stimulated macrophages (FIG. 10). Mouse macrophages were pretreated (or not) with methyl-β-cyclodextrin (MCD; 10 mM for 30 min) and then stimulated for 10 min with P. gingivalis (Pg; MOI=10:1) or medium only (med). Fluorescence resonance energy transfer (FRET) between TLR2, C5aR, CXCR4, TLR5, or MHC Class I (Cy3-labeled) and the GM1 ganglioside (Cy5-labeled) was measured from the increase in donor (Cy3) fluorescence after acceptor (Cy5) photobleaching. TLR5 and MHC Class I served as negative controls. […] As expected, max FRET values (38±1.2) were not affected by the cell activation status (med vs. Pg) or the use or not of MCD.

[2] = test system: phagocytosed P. gingivalis in mouse peritoneal macrophages; type: cell-based, P. gingivalis ATCC 33277; conditions: Pg MOI=10:1; C5a 50 nM or C3a 200 nM; 24 or 48 hours post-infection
Procedure: The viability of phagocytosed P. gingivalis was monitored by an antibiotic protection-based intracellular survival assay, as previously described (Wang et al., 2007, J. Immunol., 179:2349-58). Briefly, mouse peritoneal macrophages were allowed to phagocytose P. gingivalis (MOI=10:1; 5×10^6 bacteria and 5×10^5 cells) for […] at 37° C. This was followed by washing to remove extracellular nonadherent bacteria and 1-hour treatment with antibiotics (300 μg/ml gentamicin and 200 μg/ml metronidazole) to eliminate residual or extracellular adherent bacteria. The macrophages were subsequently cultured overnight (for a total of 24 hours) or for 48 hours Immediately after, the macrophages were washed and lysed in sterile distilled water, and viable counts of internalized P. gingivalis were determined by plating serial dilutions of macrophage lysates on blood agar plates subjected to anaerobic culture.
The viability of phagocytosed P. gingivalis was monitored by an antibiotic protection-based intracellular survival assay, as previously described (Wang et al., 2007, J. Immunol., 179:2349-58)). Briefly, mouse peritoneal macrophages were allowed to phagocytose P. gingivalis (at a MOI=10:1; 5×10^6 bacteria and 5×10^5 macrophages) for 30 min at 37° C. This was followed by washing to remove extracellular nonadherent bacteria and 1-hour treatment with antibiotics (300 μg/ml gentamicin and 200 μg/ml metronidazole) to eliminate residual or extracellular adherent bacteria. The macrophages were subsequently cultured overnight for a total of 24 hours Immediately after, the macrophages were washed and lysed in sterile distilled water and viable counts of internalized P. gingivalis were determined by plating serial dilutions of macrophage lysates on blood agar plates subjected to anaerobic culture.

[3] = test system: mouse peritoneal macrophages; experiment: P. gingivalis phagocytosis and receptor expression by flow cytometry; type: cell-based; conditions: C5a 50 nM or C3a 200 nM, 30-min incubation
Procedure: First, experiments were performed to determine the effect of C5a (50 nM) or C3a (200 nM) on P. gingivalis phagocytosis by unprimed or IFN-γ-primed mouse peritoneal macrophages (FIG. 6A). The phagocytic index was calculated following a 30-min incubation using the following formula: % positive cells for fluorescently labeled P. gingivalis×MFI/100 (extracellular fluorescence was quenched prior to flow cytometry). Mouse macrophages were incubated at 37° C. for 30 min (B) or 24 hours (C) with medium, C5a (50 nM) only, or P. gingivalis (MOI=10:1) with or without C5a (50 nM). The expression levels of the indicated receptors, which coordinately mediate P. gingivalis uptake, were determined by flow cytometry after cell staining with appropriate fluorescently labeled antibodies (FIGS. 6B and 6C). The 30-min time point was examined to determine possible induced surface expression of preformed receptors from intracellular pools. […] Mouse-specific mAbs to TLR2 (clone 6C2), TLR1 (TR23), CD14 (Sa2-8), CD11b (M1/70), and CD18 (M18/2) were obtained from e-Bioscience.

| Substance | FRET increase between receptors and GM1 in P. gingivalis-stimulated macrophages [1] | intracellular survival of P. gingivalis in macrophages (viable counts of internalized bacteria) [2] | P. gingivalis phagocytosis [3] |
| --- | --- | --- | --- |
| methyl-β-cyclodextrin [MCD] | reversal of FRET increase | – | – |
| C3a: related anaphylatoxin C3a from R&D Systems | – | not by the related anaphylatoxin C3a | not significantly affected |
